For this assay, the system named is TNF-α mRNA in Jurkat cells. The assay can be described thus: PHA/PMA-induced TNF-α mRNA in Jurkat cells (RT-PCR). The assay is classed as cell-based, human. The conditions noted are these: 10 μM. The method, then:
Activation of CB2 is known to have anti-inflammatory effects. There are some studies reporting that CB2 agonists decrease cytokine production in immune cells. We also reported that the cannabinoid receptor agonist CP55,940 and ABK5 inhibit cytokine production in the human T cell lines Jurkat and MOLT-4 [24]. Since ABK5-1 and 5-2 were confirmed to be CB2-subtype selective agonists, we were interested to determine whether these compounds also have anti-inflammatory effects. Note, although ABK5-6 had marginally better binding affinity to CB2, it bound to CB1 […] (i.e., micromolar range). Therefore ABK5-6 was not selected for further evaluations. We first tested the change of IL-2 and TNF-α mRNA levels in Jurkat cells. […] To test if these mRNA changes are reflected in the protein levels of cytokines, the IL-2 and TNF-α concentration in the cell culture medium were measured by ELISA. […] Unlike ABK5-1, at 3 h of treatment, the lowest concentration of ABK5-2 used caused the IL-2 mRNA decrease. […] On the other hand, TNF-α mRNA decreased by 45% at 10 μM ABK5-2 after 3 h of treatment (Figure 4E, black columns). […] These mRNA level changes were similar to that of ABK5-1, except ABK5-2 caused a stronger inhibitory effect on expression of TNF-α mRNA. […] Consistent with the mRNA levels, the inhibitory effect of ABK5-2 on TNF-α production was stronger than that of ABK5-1.
Figure 4 Effect of ABK5-1 and ABK5-2 on phytohemagglutinin (PHA)/phorbol 12-myristate 13-acetate (PMA)-induced cytokine production in T cells. Jurkat cells were pretreated with DMSO (<0.1%; indicated as 0 μM) or various concentrations of ABK5-1 (A–D) or ABK5-2 (E–H) and stimulated with PHA and PMA. IL-2 and TNF-α mRNA levels were determined by real-time PCR (RT-PCR) after ABK5-1 treatment and (A) 3 h and (B) 24 h of PHA/PMA (phytohemagglutinin/phorbol 12-myristate 13-acetate) stimulation. Protein levels of (C) IL-2 and (D) TNF-α were also examined after 24 h of stimulation. IL-2 and TNF-α mRNA were also examined after ABK5-2 treatment and (E) 3 h and (F) 24 h of stimulation, and protein levels of (G) IL-2 and (H) TNF-α were measured after 24 h stimulation. […]
Jurkat cells were lysed and total RNA was extracted using TRIzol Reagent (Life Technologies, Carlsbad, CA, USA) followed by reverse transcription by a High-Capacity cDNA Reverse Transcription kit (Life Technologies, Carlsbad, CA, USA) according to the manufacturer’s instructions. Quantitative real-time PCR was performed using an Applied Biosystems 7500 Fast Real-Time PCR system in a 10 μL reaction volume containing 2 μL diluted cDNA and 0.5 μM each of forward and reverse primers, and PowerUp SYBR Green Master Mix (Life Technologies, Carlsbad, CA, USA). […]

As for `CCOC(=O)c1ccccc1NC(=O)CN(c1c(C)cccc1C)S(=O)(=O)c1ccccc1` [ABK5-2], the “decrease of TNF-α mRNA” value runs as follows: (3 h PHA/PMA stimulation) 45%; (24 h) “about 60%”.

Regarding `CCOC(=O)c1ccccc1NC(=O)CN(c1ccc(C)cc1C)S(=O)(=O)c1ccccc1` [ABK5-1], the “decrease of TNF-α mRNA” value runs as follows: (3 h PHA/PMA stimulation) 35%; (24 h) 50%.

The values are drawn from publication PMC8073686, “Characterization of Subtype Selective Cannabinoid CB2 Receptor Agonists as Potential Anti-Inflammatory Agents” (Pharmaceuticals, 2021).
